According to patent publication US20160355530A1, “HEPATITIS C INHIBITORS AND USES THEREOF” (AbbVie Inc., priority 2010, published 2016):
Where two headings read alike, the source gives them in different places.

Columns and labels:
[1] = tested on: chimeric replicon with 2a-J6CF-derived NS5B; test: microbe, parasite or virus in culture; assay type: cell-based, HCV genotype 2a; settings: Hepatitis C virus, read-out: 2a chimera 5% FBS EC50
[2] = molecular target: T1, HCV NS5B polymerase 1b BK strain (Hepatitis C virus genotype 1b, UniProt P26663); test: HCV NS5B polymerase enzymatic inhibition assay, strain 1b BK; assay type: biochemical; settings: enzyme, strain 1b BK; read-out: HCV Polymerase Strain 1b BK IC50
T1 construct: six-histidine tag; made in house; host or cells: E. coli
T1 sequence (P26663 2420-2989): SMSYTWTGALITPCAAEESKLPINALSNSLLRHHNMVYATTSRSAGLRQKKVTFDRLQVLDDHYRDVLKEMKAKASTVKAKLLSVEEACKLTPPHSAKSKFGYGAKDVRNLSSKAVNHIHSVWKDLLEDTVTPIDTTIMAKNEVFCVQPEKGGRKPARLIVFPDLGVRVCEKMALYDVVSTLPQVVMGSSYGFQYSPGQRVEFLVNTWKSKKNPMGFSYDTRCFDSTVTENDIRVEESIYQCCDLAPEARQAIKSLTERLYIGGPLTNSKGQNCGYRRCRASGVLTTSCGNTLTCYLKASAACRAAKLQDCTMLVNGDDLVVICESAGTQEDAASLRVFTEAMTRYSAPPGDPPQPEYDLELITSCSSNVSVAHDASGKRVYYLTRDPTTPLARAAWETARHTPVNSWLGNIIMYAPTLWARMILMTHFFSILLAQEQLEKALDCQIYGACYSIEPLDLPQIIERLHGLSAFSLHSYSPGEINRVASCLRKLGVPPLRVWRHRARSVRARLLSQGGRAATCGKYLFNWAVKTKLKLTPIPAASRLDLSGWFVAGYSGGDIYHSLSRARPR
Procedure, shortened: (§1)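 E. coli-expressed NS5B (residues 1-570, His-tagged) transcribed a 2.1 kb HCV 1b negative-strand 3′-end RNA template (5 nM) with 20 μM CTP, 20 μM ATP and 0.284 μM [3H]UTP for 3 h at 30° C. Spermine-precipitated RNA was filter-captured and counted by scintillation; IC50 from nonlinear regression.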

[3] = tested on: HCV 1b-BB7 subgenomic replicon; test: microbe, parasite or virus in culture; assay type: cell-based, HCV genotype 1b; settings: Hepatitis C virus, stable replicon
[4] = tested on: chimeric replicon with genotype 3a NS5B; test: microbe, parasite or virus in culture; assay type: cell-based, HCV genotype 3a; settings: Hepatitis C virus, read-out: 3a chimera 5% FBS EC50
[5] = tested on: chimeric replicon with genotype 2b NS5B; test: microbe, parasite or virus in culture; assay type: cell-based, HCV genotype 2b; settings: Hepatitis C virus, read-out: 2b chimera 5% FBS EC50
[6] = tested on: HCV 1a-H77-C316Y transient subgenomic replicon in Huh-7 derived cell line; test: microbe, parasite or virus in culture; assay type: cell-based, HCV genotype 1a; settings: for EC50: Hepatitis C virus, Huh-7, read-out: Transient Replicon 1a H77-C316Y 5% FBS EC50; for Transient Replicon Fold Resistance C316Y/1a: ratio of transient replicon EC50s, C316Y / 1a H77
Description: (§2) In addition to the stable replicon inhibition assays, transient replicon assays were performed. Transient replicons are identical to the 1a-H77 and 1a-H77-C316Y constructs, except they lack the Neo gene, making it impossible to establish stable cell lines. A T7 Megascript RNA synthesis kit (Ambion) was used to transcribe the HCV subgenomic RNA. The HCV RNA was then precipitated with lithium chloride according to manufacturer's instructions. The HCV subgenomic replicon RNA was transfected via electroporation into a Huh-7 derived cell line as described (Middleton T, et al. J. Virological Methods 2007; 145(2): 137-145). Transfected cells were diluted and plated in 96 well plates at 5×10^3 cells per well in DMEM. Four hours post-transfection, the wells from one plate were harvested for luciferase measurement. This plate provides a measure of the amount of translatable input RNA, and therefore transfection efficiency. To the wells of the remaining plates, a 3-fold dilution series of test compounds was added in DMSO (0.5% DMSO final concentration), and plates were incubated at 37° C., 5% CO2 in a humidified incubator for 4 days. After this period, the media was removed and the plates were washed with 100 μL phosphate-buffered saline per well. For the luciferase assay, 30 μL of Passive Lysis buffer (Promega) was added to each well, and then the plates were incubated for 15 minutes with rocking to lyse the cells. Luciferin solution (100 μL, Promega) was added to each well, and luciferase activity was measured with a Victor II luminometer (Perkin-Elmer). The EC50 values were calculated using GraphPad Prism 4 software.

[7] = tested on: HCV 1a-H77 transient subgenomic replicon in Huh-7 derived cell line; test: microbe, parasite or virus in culture; assay type: cell-based, HCV genotype 1a; settings: Hepatitis C virus, Huh-7; transient replicon, 5% FBS; read-out: Transient Replicon 1a H77 5% FBS EC50
Description: as §2

[8] = tested on: HCV 1a-H77 subgenomic replicon; test: microbe, parasite or virus in culture; assay type: cell-based, HCV genotype 1a; settings: Hepatitis C virus, stable replicon
[9] = tested on: chimeric replicon with genotype 4a NS5B; test: microbe, parasite or virus in culture; assay type: cell-based, HCV genotype 4a; settings: Hepatitis C virus, read-out: 4a chimera 5% FBS EC50
[10] = molecular target: T2, HCV NS5B polymerase 1a-H77 (Hepatitis C virus genotype 1a, UniProt P27958); test: biochemical; set-up: species or system HCV genotype 1a; settings: enzyme, strain 1a H77; read-out: HCV Polymerase Strain 1a H77 IC50
T2 construct: six-histidine tag; made in house; host or cells: E. coli
T2 sequence (P27958 2421-2990): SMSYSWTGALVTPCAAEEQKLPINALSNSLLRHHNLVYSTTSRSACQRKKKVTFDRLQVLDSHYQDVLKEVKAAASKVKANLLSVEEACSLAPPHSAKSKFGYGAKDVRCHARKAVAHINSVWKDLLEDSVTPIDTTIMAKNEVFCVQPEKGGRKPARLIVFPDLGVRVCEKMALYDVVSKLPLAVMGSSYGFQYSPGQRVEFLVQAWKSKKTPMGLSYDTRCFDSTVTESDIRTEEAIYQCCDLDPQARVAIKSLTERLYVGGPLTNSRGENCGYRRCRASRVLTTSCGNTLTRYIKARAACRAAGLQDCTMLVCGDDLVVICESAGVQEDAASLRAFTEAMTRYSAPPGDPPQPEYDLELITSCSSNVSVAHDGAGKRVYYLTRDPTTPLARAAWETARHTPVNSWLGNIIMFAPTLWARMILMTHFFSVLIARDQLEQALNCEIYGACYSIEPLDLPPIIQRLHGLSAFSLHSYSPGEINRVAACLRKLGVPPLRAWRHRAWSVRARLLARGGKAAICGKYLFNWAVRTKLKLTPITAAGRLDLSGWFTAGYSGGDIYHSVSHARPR
Procedure, shortened: as §1

[11] = molecular target: T3, HCV NS5B polymerase 1a-H77-C316Y (Hepatitis C virus genotype 1a, UniProt P27958, C2736Y); test: biochemical; set-up: species or system HCV genotype 1a
T3 construct: six-histidine tag; made in house; host or cells: E. coli
T3 sequence (P27958 2421-2990 C2736Y): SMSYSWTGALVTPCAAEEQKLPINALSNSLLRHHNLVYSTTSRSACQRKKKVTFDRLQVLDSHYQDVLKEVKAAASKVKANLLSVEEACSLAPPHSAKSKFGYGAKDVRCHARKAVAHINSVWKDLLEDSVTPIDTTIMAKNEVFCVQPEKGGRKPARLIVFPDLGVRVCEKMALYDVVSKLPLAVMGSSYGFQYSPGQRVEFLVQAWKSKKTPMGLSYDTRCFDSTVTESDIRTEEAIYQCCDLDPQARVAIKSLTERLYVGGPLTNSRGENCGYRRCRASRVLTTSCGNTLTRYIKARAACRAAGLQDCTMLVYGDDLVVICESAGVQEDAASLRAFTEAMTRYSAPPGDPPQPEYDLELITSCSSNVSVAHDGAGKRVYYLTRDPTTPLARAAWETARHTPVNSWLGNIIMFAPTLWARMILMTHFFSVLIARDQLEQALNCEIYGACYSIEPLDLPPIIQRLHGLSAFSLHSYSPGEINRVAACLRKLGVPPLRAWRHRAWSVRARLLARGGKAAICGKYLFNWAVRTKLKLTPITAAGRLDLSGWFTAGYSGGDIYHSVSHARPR
Procedure, shortened: as §1

[12] = tested on: HCV NS5B polymerase 1a-H77-C316Y; test: biochemical; set-up: species or system HCV genotype 1a; settings: ratio of enzyme IC50s, 1a H77-C316Y / 1a H77
Procedure, shortened: as §1

[13] = strain 1b BB7, 5% FBS + 40% human plasma, read-out: 1b BB7 5% FBS + 40% Human Plasma EC50
[14] = strain 1b BB7, 5% FBS, no human plasma, read-out: 1b BB7 5% FBS EC50
[15] = strain 1b BB7, 5% FBS, read-out: 1b BB7 5% FBS EC50
[16] = 5% FBS, absence of human plasma, read-out: Stable Replicon 1a H77 5% FBS EC50
[17] = strain 1a H77, 5% FBS + 40% human plasma, read-out: 1a H77 5% FBS + 40% Human Plasma EC50
[18] = strain 1a H77, 5% FBS, no human plasma, read-out: 1a H77 5% FBS EC50
[19] = strain 1a H77, 5% FBS, read-out: 1a H77 5% FBS EC50

CS(=O)(=O)N(CCCCO)c1cc2oc(-c3ccc(F)cc3)c(-c3ncc[nH]3)c2cc1C1CC1 [Example 5, N-[5-cyclopropyl-2-(4-fluorophenyl)-3-(1H-imidazol-2-yl)-1-benzofuran-6-yl]-N-(4-hydroxybutyl)methanesulfonamide]
EC50 [1]: 0.0289 µM | IC50 [2]: 0.017 µM | EC50 [3, 13]: 0.022 µM | EC50 [3, 14]: 0.00369 µM | EC50 [3, 15]: 0.0037 µM | EC50 [4]: 0.0047 µM | EC50 [5]: 0.0279 µM | EC50 [6]: 0.0881 µM | Transient Replicon Fold Resistance C316Y/1a [6]: 29 fold | EC50 [7]: 0.003 µM | EC50 [8, 16]: 0.0032 µM | EC50 [8, 17]: 0.05 µM | EC50 [8, 18]: 0.00319 µM | EC50 [8, 19]: 0.0032 µM | EC50 [9]: 0.0322 µM | IC50 [10]: 0.0039 µM | IC50 [11]: 0.053 µM | C316Y/1a Fold Resistance [12]: 14 fold

CS(=O)(=O)CCCCN(c1cc2oc(-c3ccc(F)cc3)c(-c3ncc[nH]3)c2cc1C1CC1)S(C)(=O)=O [Example 6, N-[5-cyclopropyl-2-(4-fluorophenyl)-3-(1H-imidazol-2-yl)-1-benzofuran-6-yl]-N-[4-(methylsulfonyl)butyl]methanesulfonamide]
EC50 [1]: 0.026 µM | IC50 [2]: 0.016 µM | EC50 [3, 13]: 0.0362 µM | EC50 [3, 14]: 0.0039 µM | EC50 [3, 15]: 0.0039 µM | EC50 [4]: 0.0033 µM | EC50 [5]: 0.0188 µM | EC50 [6]: 0.105 µM | Transient Replicon Fold Resistance C316Y/1a [6]: 33 fold | EC50 [7]: 0.0032 µM | EC50 [8, 16]: 0.0083 µM | EC50 [8, 17]: 0.0613 µM | EC50 [8, 18]: 0.0083 µM | EC50 [8, 19]: 0.00832 µM | EC50 [9]: 0.0161 µM | IC50 [10]: 0.0052 µM | IC50 [11]: 0.069 µM | C316Y/1a Fold Resistance [12]: 13 fold

CS(=O)(=O)N(CCCc1cc(O)no1)c1cc2oc(-c3ccc(F)cc3)c(-c3ncc[nH]3)c2cc1C1CC1 [Example 7, N-[5-cyclopropyl-2-(4-fluorophenyl)-3-(1H-imidazol-2-yl)-1-benzofuran-6-yl]-N-[3-(3-hydroxy-1,2-oxazol-5-yl)propyl]methanesulfonamide]
EC50 [1]: 0.218 µM | IC50 [2]: 0.011 µM | EC50 [3, 13]: 0.106 µM | EC50 [3, 14]: 0.0057 µM | EC50 [3, 15]: 0.0057 µM | EC50 [4]: 0.0111 µM | EC50 [5]: 0.178 µM | EC50 [6]: 0.327 µM | Transient Replicon Fold Resistance C316Y/1a [6]: 33 fold | EC50 [7]: 0.0099 µM | EC50 [8, 16]: 0.015 µM | EC50 [8, 17]: 0.111 µM | EC50 [8, 18]: 0.015 µM | EC50 [8, 19]: 0.015 µM | EC50 [9]: 0.162 µM | IC50 [10]: 0.003 µM | IC50 [11]: 0.012 µM | C316Y/1a Fold Resistance [12]: 4 fold

CS(=O)(=O)N(CCCCO)c1cc2oc(-c3ccc(F)cc3)c(C3=NOCCN3)c2cc1C1CC1 [Example 8, N-[5-cyclopropyl-3-(5,6-dihydro-4H-1,2,4-oxadiazin-3-yl)-2-(4-fluorophenyl)-1-benzofuran-6-yl]-N-(4-hydroxybutyl)methanesulfonamide]
EC50 [1]: 0.117 µM | IC50 [2]: 0.027 µM | EC50 [3, 13]: 0.064 µM | EC50 [3, 14]: 0.01 µM | EC50 [3, 15]: 0.01 µM | EC50 [4]: 0.0199 µM | EC50 [5]: 0.101 µM | EC50 [6]: 0.0314 µM | Transient Replicon Fold Resistance C316Y/1a [6]: 10 fold | EC50 [7]: 0.0031 µM | EC50 [8, 16]: 0.0063 µM | EC50 [8, 17]: 0.036 µM | EC50 [8, 18]: 0.0063 µM | EC50 [8, 19]: 0.0063 µM | EC50 [9]: 0.0716 µM | IC50 [10]: 0.0049 µM | IC50 [11]: 0.031 µM | C316Y/1a Fold Resistance [12]: 6 fold
